Paper PMC4109950, “Novel Small Molecule XPO1/CRM1 Inhibitors Induce Nuclear Accumulation of TP53, Phosphorylated MAPK and Apoptosis in Human Melanoma Cells” (PLoS ONE, 2014)

How the values were obtained:
A375 [1] = test: Cellular growth assay (MTS), 72 h; format: cell-based, human; details: A375, 72 hr treatment, read-out: Growth Inhibition IC50
Description: (§1) Cells were seeded in 96-well plates (2×10^4) in triplicate and allowed to adhere overnight. Fresh media containing KPT-185, KPT-185-trans, KPT-276, or KPT-330 was added to each well at various concentrations (range = 40–10240 nM) and cells were incubated at 37°C/5% CO2 for 72 hours. Cells treated with DMSO (diluent) and untreated cells served as controls. At this time, the percentage of cell growth was evaluated using the MTS assay (CellTiter 96 AQueous Non-Radioactive Cell Proliferation Assay, Promega) and quantified by determining the optical density at 595 nm using a Bio-Rad iMark™ microplate reader. The 4-parameter logistic or Hill model was the assumed dose-response relationship for the in vitro inhibition and cell viability experiments. Nonlinear least squares regression was used to estimate the model parameters and generate 95% confidence intervals for the IC50 estimates. For in vivo experiments, tumor volumes were first log-transformed to meet test assumptions of normality and homoscedasticity. Changes in tumor volumes were analyzed using a two-sample t-test to evaluate the difference from first day of treatment to the last for A375 xenografts (day 17), and from day 1 to day 10 for CHL-1 xenografts as day 10 marks the first mouse sacrificed when 1500 mm^3 tumor volume was reached. ANOVA was used to compare the expression of XPO1 staining among samples from the melanoma tissue core array. The Wilcoxon rank-sum test was used to analyze data comparing growth inhibition and apoptosis of the five metastatic melanoma cell lines to the three melanocyte cell lines.

CHL-1 [2] = test: Cellular growth assay (MTS), 72 h; format: cell-based, human; details: Homo sapiens, CHL-1, 72 hr treatment, read-out: Growth Inhibition IC50
Description: as §1

FO-1 [3] = test: Cellular growth assay (MTS), 72 h; format: cell-based, human; details: FO-1, 72 hr treatment, read-out: Growth Inhibition IC50
Description: as §1

HEMn-DP [4] = test: Cellular growth assay (MTS), 72 h; format: cell-based, human; details: HEMn-DP primary melanocytes, highest concentration 10240 nM
Description: as §1

HEMn-MP [5] = test: Cellular growth assay (MTS), 72 h; format: cell-based, human; details: HEMn-MP primary melanocytes, highest concentration 10240 nM
Description: as §1

HEM-l [6] = test: Cellular growth assay (MTS), 72 h; format: cell-based; details: Homo sapiens, Melanocyte, HEM-l primary melanocytes, 72 hr treatment, read-out: Growth Inhibition IC50
Description: as §1

Hs294T [7] = test: Cellular growth assay (MTS), 72 h; format: cell-based; details: Homo sapiens, Hs 294T, 72 hr treatment, read-out: Growth Inhibition IC50
Description: as §1

Wm1366 [8] = test: Cellular growth assay (MTS), 72 h; format: cell-based; details: Homo sapiens, Wm1366, 72 hr treatment, read-out: Growth Inhibition IC50
Description: as §1

A375 [9] = test: Apoptosis via Annexin V/PI staining, flow cytometry; format: cell-based; details: Homo sapiens, A-375, A375, 72 hr treatment
Description: (§2) Phosphatidyl serine exposure was assessed in tumor cells and melanocytes by flow cytometry using APC-Annexin V and propidium iodide (PI; BD Pharmingen, San Diego, CA) as previously described. Each analysis was performed utilizing at least 10,000 events. We considered the Annexin V positive cells (early apoptosis) and Annexin V/PI double positive cells (late apoptosis) cells as the apoptotic cell population. The 4-parameter logistic or Hill model was the assumed dose-response relationship for the in vitro inhibition and cell viability experiments. Nonlinear least squares regression was used to estimate the model parameters and generate 95% confidence intervals for the IC50 estimates. For in vivo experiments, tumor volumes were first log-transformed to meet test assumptions of normality and homoscedasticity. Changes in tumor volumes were analyzed using a two-sample t-test to evaluate the difference from first day of treatment to the last for A375 xenografts (day 17), and from day 1 to day 10 for CHL-1 xenografts as day 10 marks the first mouse sacrificed when 1500 mm^3 tumor volume was reached. ANOVA was used to compare the expression of XPO1 staining among samples from the melanoma tissue core array. The Wilcoxon rank-sum test was used to analyze data comparing growth inhibition and apoptosis of the five metastatic melanoma cell lines to the three melanocyte cell lines.

CHL-1 [10] = test: as above; format: cell-based; details: Homo sapiens, CHL-1, 72 hr treatment
Description: as §2

FO-1 [11] = test: as above; format: cell-based; details: Homo sapiens, FO-1, 72 hr treatment
Description: as §2

HEM-l [12] = test: as above; format: cell-based; details: Homo sapiens, Melanocyte, HEM-l primary melanocytes, 72 hr treatment
Description: as §2

Hs294T [13] = test: as above; format: cell-based; details: Homo sapiens, Hs 294T, 72 hr treatment
Description: as §2

Wm1366 [14] = test: as above; format: cell-based; details: Homo sapiens, Wm1366, 72 hr treatment
Description: as §2

HEMn-DP [15] = test: as above; format: cell-based, human; details: HEMn-DP primary melanocytes, 72 hr, range 0–10.24 µM
Description: as §2

HEMn-MP [16] = test: as above; format: cell-based, human; details: HEMn-MP primary melanocytes, 72 hr, range 0–10.24 µM
Description: as §2

A375 [17] = test: Cell cycle assay (PI, flow cytometry); format: cell-based, human; details: A375, 1 µM, 24 h or 48 hr, PI staining
Description: (§3) Cell-cycle analysis was conducted using propidium iodide (PI) following the manufacturer's protocol (BD Pharmigen). Cells were plated in 6-well plates and treated for 24 h or 48 hr with 1 µM of KPT-185. A total of 1×10^5 cells per analysis were examined by flow cytometry (FACSCalibur), and analyzed using ModFit LT 3.3.

CHL-1 [18] = test: Cell cycle assay (PI, flow cytometry); format: cell-based, human; details: CHL-1, 1 µM, 24 h or 48 hr, PI staining
Description: as §3

A375 [19] = test: Subcellular fractionation and immunoblot analysis; format: cell-based, human
Description: (§4) Human melanoma cell lines were seeded in 6-well plates (2×10^5) and allowed to adhere overnight. After treatment for various time points, the cells were harvested then fractionated using NE-PER Nuclear and Cytoplasmic Extraction Reagents from Thermo Scientific following the manufacturer's protocol. Nuclear and cytoplasmic fractions were validated via immunoblot analysis using Lamin B and GAPDH antibodies. Immunoblots were prepared as previously described and probed with antibodies specific for TP53, CDKN1A (p21), XPO1, HDM2 (MDM2), Lamin B (Santa Cruz Biotechnology, Santa Cruz, CA), pMAPK, PARP (Cell Signaling Technology), GAPDH or β-actin (Sigma). Following incubation with the appropriate horseradish peroxidase-conjugated secondary antibody, immune complexes were detected using the ECL Plus detection kit (Amersham Biosciences, Ayesbury, UK).

CHL-1 [20] = test: Subcellular fractionation and immunoblot analysis; format: cell-based, human
Description: as §4

melanoma cell lines = test: Immunoblot analysis of PARP cleavage; format: cell-based, human; details: KPT-185 at the IC50 for apoptosis for each cell line
Description: Immunoblots were prepared as previously described and probed with antibodies specific for TP53, CDKN1A (p21), XPO1, HDM2 (MDM2), Lamin B (Santa Cruz Biotechnology, Santa Cruz, CA), pMAPK, PARP (Cell Signaling Technology), GAPDH or β-actin (Sigma). Following incubation with the appropriate horseradish peroxidase-conjugated secondary antibody, immune complexes were detected using the ECL Plus detection kit (Amersham Biosciences, Ayesbury, UK).

[21] = Homo sapiens, Melanocyte, read-out: Growth Inhibition IC50

IC50 (A375 [1]): 45.9 nM
IC50 (A375 [1]; Homo sapiens, A-375, 72 h): ~50 nM
IC50 (A375 [9]): 147 nM
IC50 (CHL-1 [10]): 2410 nM
IC50 (FO-1 [11]): 297 nM
IC50 (HEM-l [12]): 3170 nM
IC50 (Hs294T [13]): 212 nM
IC50 (Wm1366 [14]): 661 nM
Apoptosis IC50 (HEMn-DP [15]): not achievable
Apoptosis IC50 (HEMn-DP [15]; listed as KPT185): Not achieved
Apoptosis IC50 (HEMn-MP [16]): not achievable
Apoptosis IC50 (HEMn-MP [16]; listed as KPT185): Not achieved
SMILES: COc1cc(-c2ncn(/C=C\C(=O)OC(C)C)n2)cc(C(F)(F)F)c1 [KPT-185]
IC50 (CHL-1 [2]): 592 nM
IC50 (FO-1 [3]): 32.1 nM
IC50 (FO-1 [3]; Homo sapiens, 72 h): ~50 nM
Growth Inhibition IC50 (HEMn-DP [4]): Not achieved
IC50 (HEMn-DP [4]; [21]): > 10200 nM
Growth Inhibition IC50 (HEMn-MP [5]): Not achieved
IC50 (HEMn-MP [5]; [21]): > 10200 nM
IC50 (HEM-l [6]): 4130 nM
IC50 (Hs294T [7]): 48.9 nM
IC50 (Wm1366 [8]): 347 nM
Cell cycle effect (A375 [17]): arrested in the G1 phase
Cell cycle effect (CHL-1 [18]): arrested in the G1 phase
Expression of TP53 protein (A375 [19]; A375 (TP53 WT), 500 nM, nuclear localization at 16 hour): upregulated
CDKN1A expression (A375 [19]; A375, 500 nM): upregulation
HDM2 expression in cytoplasmic and nuclear compartment (A375 [19]; A375, KPT-185 at IC50, 16 hr, no detectable protein at basal level): robust expression of HDM2
Nuclear accumulation of phosphorylated MAPK (A375 [19]; A375, nuclear fraction, immunoblot): accumulated in the nuclear compartment
TP53 or CDKN1A induction (CHL-1 [20]; CHL-1 (mutated TP53), 500 nM): only limited TP53 or CDKN1A induction
Nuclear accumulation of phosphorylated MAPK (CHL-1 [20]; CHL-1, nuclear fraction, immunoblot): accumulated in the nuclear compartment
PARP cleavage (melanoma cell lines): cleavage of PARP
